Laboratory results reported in BindingDB's records for doi:10.1021/jm00185a027 (1981).

Target: Aldo-keto reductase family 1 member B1 (Oryctolagus cuniculus) (UniProt P15122)
Experiment: Binding affinity towards rabbit aldose reductase

Compound CN(C)S(=O)(=O)c1ccc2oc3ccc(C(=O)O)cc3c(=O)c2c1 [7-Dimethylsulfamoyl-9-oxo-9H-xanthene-2-carboxylic acid] has a Ki of 400 nM.
